Results as given in patent US5045566A, “Novel imidate insecticides” (ICI Americas Inc., priority 1989, dated 1991).

Columns and labels:
Assay type in all cases: in vivo
[1] = tested on: Cabbage Looper [Trichoplusia ni (Hubner)]; assay: Cabbage looper leaf dip (CL), 3-5 days; details: percent in solution, second-instar larvae
Procedure, shortened: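 LC50 values, given as percent test compound in solution, were calculated from dosage-mortality curves. Squash cotyledons were immersed 2-3 s in acetone-water (50-50) dilutions starting at 0.1%, dried on a screen, then infested with five second-instar larvae. Mortality was read 3-5 days on.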

[2] = tested on: Aster Leafhopper [Macrosteles fascifrens (Stal)]; assay: Aster leafhopper on dipped oat seedlings (LH), 48 hours; details: percent in solution, adults/nymphs
Protocol: The compounds in Tables 1 and 2 above were tested for insecticidal activity using the following testing procedures. LC50 values, based on the results of these tests and calculated according to dosage-mortality curves, are expressed in Table 3.
Aster Leafhopper [Macrosteles fascifrens (Stal)]
Oat seedlings (Avena sp) were grown in a commercial potting soil in cups. When the plants were approximately 10 cm tall they were thinned to three plants per cup and dipped for 2-3 seconds in 50-50 acetone-water solutions of the test compounds. When the plants had dried, a clear plastic tube was placed over them and the bottom end pressed into the cup. Ten aster leafhopper adults/nymphs were then placed in each tube and the tops of the tubes covered with white organdy cloth. Mortality counts were made after 48 hours. Test concentrations ranged from 0.05% down to that at which 50% mortality occurred. The LC50 values are expressed below in Table 3 under the heading "LH" in terms of the percent of the test compound in the solution.

[3] = tested on: Black Bean Aphid [Aphis fabae (Scop.)]; assay: Black bean aphid spray test on nasturtium (BBA), 48 hours; details: percent of test compound in sprayed solution
Procedure, shortened: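 LC50, given as percent test compound in the sprayed liquid, was calculated from dosage-mortality curves using concentrations from 0.05% downward. Sprays in 50:50 acetone-water went to runoff on ~5 cm nasturtiums carrying 25-50 aphids of mixed ages, one day after infestation. Deaths were counted 48 h later under greenhouse conditions.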

[4] = tested on: Housefly [Musca domestica]; assay: Housefly contact mortality in dishes (HF), 48 hours; details: μg of test compound per 25 female flies
Procedure, shortened: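 LC50, as μg compound per 25 female flies, comes from dosage-mortality curves with doses from 100 μg downward. Residues were made by evaporating acetone plus 0.01% peanut oil in dishes, onto which 1-2-day-old females were caged; deaths were counted after 48 hours.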

[5] = tested on: Maize weevil [Sitophilus zeamais (Motschulsky)]; assay: Maize weevil on dipped corn seeds (MW), 48 hours; details: percent in solution, adult weevils
Procedure, shortened: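 LC50, given as percent of compound in dipping solution, comes from dosage-mortality curves over concentrations descending from 0.01%. Four corn seeds soaked 2-3 s in 50:50 acetone:water solution were dried and held with 10 adult weevils, about 25° C, mortality read after 48 h.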

[6] = tested on: Tobacco Budworm [Heliothis virescens (Fabricius)] eggs; assay: Tobacco budworm eggs (TBW-E); details: percent in solution; 2-day old eggs
Procedure, shortened: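 2-day eggs on paper towel, acetone dip, 0.1% and below; petri dish with larval diet, 78° F. Mortality read after control hatch and larval feeding. LC50 = % compound in solution, from dose-mortality curve.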

Structure (SMILES) | LC50 CL [1] | LC50 LH [2] | LC50 BBA [3] | LC50 HF [4] | LC50 MW [5] | LC50 TBW E (eggs) [6]
CC1(C(=Nc2ccc(Cl)cc2)OCc2cccc(Oc3ccccc3)c2)CC1 [Compound 5] | 0.005% | > 0.05% | 0.001% | 21 µg | > 0.01% | 
C=C(C)C(=Nc1ccc(Cl)cc1)OCc1cccc(Oc2ccccc2)c1 [Compound 6] | 0.02% | > 0.05% | 0.001% | 17 µg | > 0.01% | 0.015%
CCC(=Nc1ccc(Cl)cc1)OCc1cccc(Oc2ccccc2)c1 [Compound 11] | 0.025% | > 0.05% | 0.01% | 6 µg | > 0.01% | > 0.1%
CC(C)C(=Nc1cc(Cl)ccc1Cl)OCc1cccc(Oc2ccccc2)c1 [Compound 13] | 0.014% | > 0.05% | 0.003% | > 100 µg | > 0.01% | > 0.1%
CC(C)C(=Nc1ccccc1Cl)OCc1cccc(Oc2ccccc2)c1 [Compound 17] | 0.03% | > 0.05% | 0.03% | 75 µg | > 0.01% | > 0.1%
N#CC(=Nc1ccc(Cl)cc1)OCc1cccc(Oc2ccccc2)c1 [Compound 21] | 0.02% | > 0.05% | > 0.1% | 7 µg | > 0.01% | > 0.1%
CC(C)(C)C(=Nc1ccc(Cl)c(Cl)c1)OCc1cccc(Oc2ccccc2)c1 [Compound 25] | 0.01% | > 0.05% | > 0.1% | > 100 µg | > 0.01% | > 0.1%
FC(F)(F)C(=Nc1ccc(Cl)cc1)OCc1cccc(Oc2ccccc2)c1 [Compound 35] | 0.008% | > 0.05% |  | 15 µg | > 0.01% | 0.03%
CC(C)C(=Nc1ccccc1)OCc1cccc(Oc2ccccc2)c1 [Compound 43] | 0.018% | > 0.05% | 0.001% | 7 µg | > 0.01% | 0.05%
Fc1ccc(N=C(OCc2cccc(Oc3ccccc3)c2)C(F)F)cc1 [Compound 50] | 0.02% | > 0.05% | 0.01% | 43 µg | > 0.01% | > 0.05%
CC(C)C(=Nc1ccccc1C(F)(F)F)OCc1cccc(Oc2ccccc2)c1 [Compound 72] | 0.08% | > 0.05% | > 0.05% | > 100 µg | > 0.01% | > 0.1%
CCS(=O)(=O)c1ccc(N=C(OCc2cccc(Oc3ccccc3)c2)C(C)C)cc1Cl [Compound 112] | 0.025% | > 0.05% | 0.05% | > 100 µg | > 0.01% | > 0.1%
Fc1ccc(N=C(OCc2cccc(Oc3ccccc3)c2)C(F)(F)C(F)(F)F)cc1Cl [Compound 117] | 0.006% | 0.0003% | > 0.05% | 55 µg | > 0.01% | > 0.1%
CC(C)C(=Nc1ccc(F)c(Cl)c1)OCc1cccc(Oc2ccccc2F)c1 [Compound 119] | 0.0007% | 0.0008% | > 0.05% | 27 µg | > 0.01% | 0.048%
CC1(C)C(C(=Nc2ccc(F)c(Cl)c2)OCc2cccc(Oc3ccccc3)c2)C1(C)C [Compound 124] | 0.01% | > 0.05% | > 0.05% | 17 µg | > 0.01% | > 0.1%
CC(C)C(=Nc1cccc(Br)c1)OCc1cccc(Oc2ccccc2)c1 [Compound 128] | 0.005% | 0.003% | 0.001% | 4.5 µg | > 0.01% | 0.037%
CC(C)C(=Nc1ccccc1Br)OCc1cccc(Oc2ccccc2)c1 [Compound 132] | 0.025% | > 0.05% | 0.0025% | 65 µg | > 0.01% | > 0.1%
CSc1ccc(N=C(OCc2cccc(Oc3ccccc3)c2)C(C)C)cc1 [Compound 142] | 0.005% | > 0.05% | 0.001% | 15 µg | > 0.01% | 0.1%
COc1cccc(N=C(OCc2cccc(Oc3ccccc3)c2)C(C)C)c1 [Compound 143] | 0.002% | 0.006% | 0.002% | 10 µg | > 0.01% | < 0.1%
COC(=O)c1ccc(N=C(OCc2cccc(Oc3ccccc3)c2)C(C)C)cc1 [Compound 151] | 0.009% | > 0.05% | 0.006% | 38 µg | > 0.01% | > 0.1%
CC(C)C(=Nc1ccc(C(C)(C)C)cc1)OCc1cccc(Oc2ccccc2)c1 [Compound 153] | 0.004% | 0.0005% | 0.003% | > 100 µg | > 0.01% | 0.1%
CC(C)C(=Nc1ccc(Cl)cc1)OCc1cccc(Oc2ccc(F)cc2)c1 [Compound 189] | 0.00027% | 0.002% |  | 17 µg | > 0.01% | 0.07%
CC(C)C(=Nc1ccc(Cl)c(C(F)(F)F)c1)OCc1cccc(Oc2ccc(F)cc2)c1 [Compound 193] | 0.00075% | 0.001% |  | 100 µg | > 0.01% | > 0.1%
Fc1ccc(Oc2cccc(COC(=Nc3ccc(F)c(Cl)c3)C(F)(F)C(F)(F)F)c2)cc1 [Compound 258] | 0.003% | > 0.05% | 0.01% | > 100 µg |  | > 0.1%
CC(C)C(=Nc1ccc(Cl)cc1)OC(C)c1cccc(Oc2ccccc2)c1 (stereo not shown) [Compound 457] | 0.009% | > 0.05% | > 0.05% | > 100 µg |  | > 0.05%
CC(C)C(=Nc1ccc2c(c1)OCO2)OCc1cccc(Oc2ccc(Cl)cc2)n1 [Compound 466] | 0.0008% | > 0.05% |  | 13 µg | 0.01% | > 0.1%
COCc1c(F)c(F)c(COC(=Nc2ccc(F)c(Cl)c2F)C(C)C)c(F)c1F [Compound 522] | > 0.1% | 0.05% | 0.002% |  | > 0.01% | > 0.1%
CC(C)C(=Nc1cccc(C(F)(F)F)c1)OCc1cc(Oc2ccc(F)cc2)ccn1 [Compound 528] | 0.0075% | > 0.05% | > 0.05% |  | > 0.01% | > 0.1%
CC(C)C(=Nc1ccc(F)c(Cl)c1)OCc1cc(Oc2ccc(F)cc2)ccn1 [Compound 529] | > 0.0025% | > 0.05% | > 0.05% |  | > 0.01% | > 0.1%
CC(C)C(=Nc1ccc(OC(F)(F)F)cc1)OCc1cccc(Cc2ccccc2)c1 [Compound 538] | > 0.1% | > 0.05% |  | 75 µg | > 0.01% | > 0.1%
